Experimental data reported in patent US20250213705A1, “PSMA TARGETING LIGANDS AND METHODS OF USE” (Bright Peak Therapeutics AG, priority 2023, published 2025).
Numbered stars: 1 amine (or outer) side, 2 acyl side, 3 side chain; on linkers, the order of the positions; unused ones are H or OH. Square brackets hold non-standard residues; d marks the D form. Side chains are listed from the residue outwards. Peptide text beside a SMILES is read from it. 2Nal = N[C@@H](Cc1ccc2ccccc2c1)C(=O)O; Trx = NC[C@H]1CC[C@H](C(=O)O)CC1; PEG3 = NCCOCCOCCOCCC(=O)O; Dap = NC[C@H](N)C(=O)O; CO = O=C([*:1])[*:2]

Legend:
[1] = biological target: Recombinant Human PSMA/FOLH1 Protein (Homo sapiens (Human), UniProt Q04609); assay: Inhibition assay (Amplex Red glutamic acid/glutamate oxidase, NAAG substrate); type: biochemical; conditions: Target PSMA, average of N replicates; for IC50: PSMA 5 nM, NAAG 40 μM; for Ki: calculated based on Cheng-Prusoff equation
Chain of Recombinant Human PSMA/FOLH1 Protein (Q04609 whole entry): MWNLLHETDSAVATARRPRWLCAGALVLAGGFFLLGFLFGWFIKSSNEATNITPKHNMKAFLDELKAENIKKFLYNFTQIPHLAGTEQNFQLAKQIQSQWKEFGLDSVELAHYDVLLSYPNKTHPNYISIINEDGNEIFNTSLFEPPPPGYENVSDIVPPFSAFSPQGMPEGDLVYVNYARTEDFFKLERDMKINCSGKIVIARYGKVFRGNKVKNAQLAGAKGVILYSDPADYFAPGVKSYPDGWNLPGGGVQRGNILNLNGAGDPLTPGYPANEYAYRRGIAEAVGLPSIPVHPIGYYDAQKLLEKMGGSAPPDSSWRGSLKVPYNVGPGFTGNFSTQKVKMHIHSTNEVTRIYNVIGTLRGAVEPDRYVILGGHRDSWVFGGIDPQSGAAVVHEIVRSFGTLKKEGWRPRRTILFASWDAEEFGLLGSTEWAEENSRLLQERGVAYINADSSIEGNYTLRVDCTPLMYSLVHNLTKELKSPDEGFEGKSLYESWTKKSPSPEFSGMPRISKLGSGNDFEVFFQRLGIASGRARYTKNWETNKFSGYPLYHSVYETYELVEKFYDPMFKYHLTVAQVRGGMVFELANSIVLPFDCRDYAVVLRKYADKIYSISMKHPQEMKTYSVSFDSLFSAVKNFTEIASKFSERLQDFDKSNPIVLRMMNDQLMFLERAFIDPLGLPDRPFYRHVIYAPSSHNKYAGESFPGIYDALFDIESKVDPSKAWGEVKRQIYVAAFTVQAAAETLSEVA
Experimental: Amplex™ Red Glutamic Acid/Glutamate Oxidase Assay Kit Catalog number: A12221 (Thermofisher); Recombinant Human PSMA/FOLH1 Protein, CF (rnd systems); N-Acetyl-Asp-Glu (NAAG) (Sigma Aldrich; 96 well half area plate; Enspire plate reader.
Prepare a working solution of 100 μM Amplex® Red reagent containing 0.25 U/mL HRP, 0.08 U/mL L-glutamate oxidase, 0.5 U/mL 1-glutamate-pyruvate transaminase, 200 μM L-alanine and keep protected from light. […] Final concentration is 5 nM. Transfer 10 μl/well of the inhibitor solution previously prepared in a separate 96 wells/plate.
Pipette 20 μl/well of the working solution prepared above. Incubate the reactions for 30 min at 37° C., protected from light. Because the assay is continuous (not terminated), fluorescence may be measured at multiple time points to follow the kinetics of the reactions. Measure the fluorescence in a fluorescence microplate reader using excitation in the range of 530-560 nm and emission detection at ˜590 nm. Ec50s were determined with GraphPad Prism. Ki is calculated based on Cheng-Prusoff equation.

human FOLH1 = human FOLH1 (Homo sapiens (Human), UniProt Q04609); assay: SPR analysis of binding kinetics to biotinylated FOLH1 (Biacore 8K); conditions: ligand PSMA; for Kon: association rate; for koff: dissociation rate
Chain of human FOLH1 (Q04609 whole entry): as above
Experimental: The interaction of PSMA-binding variants with human FOLH1 was measured with Surface Plasmon Resonance (SPR) technology. Biotinylated FOLH1 was captured at a concentration of 30 μg/mL onto a Streptavidin chip.
Binding kinetics of the analytes were measured with a Biacore 8K instrument in two-fold serial dilutions starting at 500 nM down to 1.95 nM in single cycle kinetic measurements. After each cycle, needles were washed with 50% DMSO. To measure the association to the FOLH1 protein, the samples were injected with a flow rate of 30 μL/min for 90 s, followed by 1200 s buffer only to detect the dissociation. The used running buffer was 1×PBS with 0.05% Tween20 and 2% DMSO. The relative response units (RU, Y-axis) are plotted against time (s, X-axis) and analyzed in a kinetic 1:1 binding model.
In a different setup, biotinylated FOLH1 was captured at a concentration of 0.8 μg/mL and the running buffer was 1×PBS with 0.05% Tween20.

## CC(=O)NCCOCCOCCOCCC(=O)NC[C@H]1CC[C@H](C(=O)N[C@@H](Cc2ccc3ccccc3c2)C(=O)NCCCC[C@H](NC(=O)N[C@@H](Cc2cnc[nH]2)C(=O)O)C(=O)O)CC1 (stereo in doubt) [Compound 29]
[1]
  IC50: 576 µM
  Ki: 4120 nM

## CC(=O)NCCOCCOCCOCCC(=O)NC[C@H]1CC[C@H](C(=O)N[C@@H](CC(C)C)C(=O)NCCCC[C@H](NC(=O)N[C@@H](CCC(=O)O)C(=O)O)C(=O)O)CC1 [Compound 1]
[1]
  IC50: 2.39 µM
  Ki: 17.1 nM

## CC(=O)NCCOCCOCCOCCC(=O)NC[C@H]1CC[C@H](C(=O)N[C@@H](Cc2ccc(O)cc2)C(=O)NCCCC[C@H](NC(=O)N[C@@H](CCC(=O)O)C(=O)O)C(=O)O)CC1 [Compound 3]
[1]
  IC50: 0.421 µM
  Ki: 3.01 nM

## CC(=O)NCCOCCOCCOCCC(=O)NC[C@H]1CC[C@H](C(=O)N[C@@H](C)C(=O)NCCCC[C@H](NC(=O)N[C@@H](CCC(=O)O)C(=O)O)C(=O)O)CC1 [Compound 4]
[1]
  IC50: 0.537 µM
  Ki: 3.84 nM

## CC(=O)NCCOCCOCCOCCC(=O)NC[C@H]1CC[C@H](C(=O)N[C@@H](CCCCN)C(=O)NCCCC[C@H](NC(=O)N[C@@H](CCC(=O)O)C(=O)O)C(=O)O)CC1 [Compound 6]
[1]
  IC50: 58.2 µM
  Ki: 416 nM

## CC(=O)NCCOCCOCCOCCC(=O)NC[C@H]1CC[C@H](C(=O)N[C@@H](Cc2c[nH]cn2)C(=O)NCCCC[C@H](NC(=O)N[C@@H](CCC(=O)O)C(=O)O)C(=O)O)CC1 [Compound 9]
[1]
  IC50: 1.08 µM
  Ki: 7.74 nM

## CC(=O)NCCOCCOCCOCCC(=O)NC[C@H]1CC[C@H](C(=O)N[C@@H](Cc2cn(C)cn2)C(=O)NCCCC[C@H](NC(=O)N[C@@H](CCC(=O)O)C(=O)O)C(=O)O)CC1 [Compound 11]
[1]
  IC50: 3.24 µM
  Ki: 23.2 nM

## CC(=O)NCCOCCOCCOCCC(=O)NC[C@H]1CC[C@H](C(=O)N[C@@H](Cc2ccc(F)cc2)C(=O)NCCCC[C@H](NC(=O)N[C@@H](CCC(=O)O)C(=O)O)C(=O)O)CC1 [Compound 13]
[1]
  IC50: 0.951 µM
  Ki: 6.8 nM

## CC(=O)NCCOCCOCCOCCC(=O)NC[C@H]1CC[C@H](C(=O)N[C@@H](Cc2ccc(N=[N+]=[N-])cc2)C(=O)NCCCC[C@H](NC(=O)N[C@@H](CCC(=O)O)C(=O)O)C(=O)O)CC1 [Compound 15]
[1]
  IC50: 0.935 µM
  Ki: 6.68 nM

## CC(=O)NCCOCCOCCOCCC(=O)NC[C@H]1CC[C@H](C(=O)N[C@H](Cc2ccccc2)C(=O)NCCCC[C@H](NC(=O)N[C@@H](CCC(=O)O)C(=O)O)C(=O)O)CC1 [Compound 18]
[1]
  IC50: 0.54 µM
  Ki: 3.86 nM

## CC(=O)NCCOCCOCCOCCC(=O)NC[C@H]1CC[C@H](C(=O)N[C@@H](CC2CCCCC2)C(=O)NCCCC[C@H](NC(=O)N[C@@H](CCC(=O)O)C(=O)O)C(=O)O)CC1 [Compound 19]
[1]
  IC50: 2.16 µM
  Ki: 15.4 nM

## CC(=O)NCCOCCOCCOCCC(=O)NC[C@H]1CC[C@H](C(=O)N[C@@H](CCCC(=O)O)C(=O)NCCCC[C@H](NC(=O)N[C@@H](CCC(=O)O)C(=O)O)C(=O)O)CC1 [Compound 20]
[1]
  IC50: 1.49 µM
  Ki: 10.7 nM

## CC(=O)NCCOCCOCCOCCC(=O)NC[C@H]1CC[C@H](C(=O)N[C@@H](Cc2c[nH]c3ncccc23)C(=O)NCCCC[C@H](NC(=O)N[C@@H](CCC(=O)O)C(=O)O)C(=O)O)CC1 [Compound 22]
[1]
  IC50: 0.488 µM
  Ki: 3.49 nM

## CC(=O)NCCOCCOCCOCCC(=O)NC[C@H]1CC[C@H](C(=O)N[C@@H](Cc2ccc3ccccc3c2)C(=O)NCCCC[C@H](NC(=O)N[C@@H](CC(=O)O)C(=O)O)C(=O)O)CC1 [Compound 23]
Human FOLH1
  Kon: 291000 1.ms
  koff: 0.0349 s⁻¹

## CC(=O)NCCOCCOCCOCCC(=O)NC[C@H]1CC[C@H](C(=O)N[C@@H](Cc2ccc3ccccc3c2)C(=O)NCCCC[C@H](NC(=O)N[C@@H](Cc2ccc(O)cc2)C(=O)O)C(=O)O)CC1 [Compound 25]
[1]
  IC50: 44.6 µM
  Ki: 319 nM

## CC(=O)NCCOCCOCCOCCC(=O)NC[C@H]1CC[C@H](C(=O)N[C@@H](Cc2ccc3ccccc3c2)C(=O)NCCCC[C@H](NC(=O)N[C@@H](CC(C)C)C(=O)O)C(=O)O)CC1 [Compound 26]
[1]
  IC50: 1550 µM
  Ki: 11000 nM

## CSCC[C@H](NC(=O)N[C@@H](CCCCNC(=O)[C@H](Cc1ccc2ccccc2c1)NC(=O)[C@H]1CC[C@H](CNC(=O)CCOCCOCCOCCNC(C)=O)CC1)C(=O)O)C(=O)O [Compound 27]
[1]
  IC50: 191 µM
  Ki: 1370 nM

## CC(=O)NCCOCCOCCOCCC(=O)NC[C@H]1CC[C@H](C(=O)N[C@@H](Cc2ccc3ccccc3c2)C(=O)NCCCC[C@H](NC(=O)N[C@@H](Cc2cccc(C(=O)O)c2)C(=O)O)C(=O)O)CC1 [Compound 30]
[1]
  IC50: 602 µM
  Ki: 4300 nM

## CC(=O)NCCOCCOCCOCCC(=O)NC[C@H]1CC[C@H](C(=O)N[C@@H](Cc2ccc3ccccc3c2)C(=O)NCCCC[C@H](NC(=O)N[C@@H](Cc2ccc(C(=O)O)cc2)C(=O)O)C(=O)O)CC1 [Compound 31]
[1]
  IC50: 260 µM
  Ki: 1860 nM

## CC(=O)NCCOCCOCCOCCC(=O)NC[C@H]1CC[C@H](C(=O)N[C@@H](Cc2ccc3ccccc3c2)C(=O)NCC(=O)N[C@@H](CNC(=O)N[C@@H](CCC(=O)O)C(=O)O)C(=O)O)CC1 [Compound 32] (Ac-[PEG3][Trx][2Nal]G[Dap]([CO-Glu])-OH)
[1]
  IC50: 434 µM
  Ki: 3100 nM

## CC(=O)NCCOCCOCCOCCC(=O)NC[C@H]1CC[C@H](C(=O)N[C@@H](Cc2ccc3ccccc3c2)C(=O)NCCCC(=O)N[C@@H](CNC(=O)N[C@@H](CCC(=O)O)C(=O)O)C(=O)O)CC1 [Compound 33]
[1]
  IC50: 583 µM
  Ki: 4170 nM

## CC(=O)NCCOCCOCCOCCC(=O)NC[C@H]1CC[C@H](C(=O)N[C@H](Cc2c[nH]cn2)C(=O)NCCCC[C@H](NC(=O)N[C@@H](CCC(=O)O)C(=O)O)C(=O)O)CC1 [Compound 42]
[1]
  IC50: 2.24 µM
  Ki: 16 nM

## CC(=O)NCCOCCOCCOCCC(=O)NC[C@H]1CC[C@H](C(=O)N[C@H](Cc2ccc(O)cc2)C(=O)NCCCC[C@H](NC(=O)N[C@@H](CCC(=O)O)C(=O)O)C(=O)O)CC1 [Compound 43]
[1]
  IC50: 0.679 µM
  Ki: 4.86 nM

## CC(=O)NCCOCCOCCOCCC(=O)NC[C@H]1CC[C@H](C(=O)N[C@@H](Cc2ccncc2)C(=O)NCCCC[C@H](NC(=O)N[C@@H](CCC(=O)O)C(=O)O)C(=O)O)CC1 [Compound 44]
[1]
  IC50: 0.177 µM
  Ki: 1.27 nM

## CC(=O)NCCOCCOCCOCCC(=O)NC[C@H]1CC[C@H](C(=O)N[C@@H](Cc2cscn2)C(=O)NCCCC[C@H](NC(=O)N[C@@H](CCC(=O)O)C(=O)O)C(=O)O)CC1 [Compound 45]
[1]
  IC50: 0.554 µM
  Ki: 3.96 nM

## CC(=O)NCCOCCOCCOCCC(=O)NC[C@H]1CC[C@H](C(=O)N[C@H](CC(=O)NCCCC[C@H](NC(=O)N[C@@H](CCC(=O)O)C(=O)O)C(=O)O)Cc2ccccc2)CC1 [Compound 46]
[1]
  IC50: 0.446 µM
  Ki: 3.19 nM

## CC(=O)NCCOCCOCCOCCC(=O)NC[C@H]1CC[C@H](C(=O)N[C@@H](CCCOc2cc(C#N)cc(C#N)c2)C(=O)NCCCC[C@H](NC(=O)N[C@@H](CCC(=O)O)C(=O)O)C(=O)O)CC1 [Compound 47]
[1]
  IC50: 2.06 µM
  Ki: 14.7 nM

## C#CC[C@H](NC(=O)N[C@@H](CCCCNC(=O)[C@H](Cc1ccc2ccccc2c1)NC(=O)[C@H]1CC[C@H](CNC(=O)CCOCCOCCOCCNC(C)=O)CC1)C(=O)O)C(=O)O [Compound 50]
[1]
  IC50: 17.6 µM
  Ki: 126 nM

## CC(=O)NCCOCCOCCOCCC(=O)N[C@@H](CCCOc1cc(C#N)cc(C#N)c1)C(=O)N[C@@H](Cc1ccc2ccccc2c1)C(=O)NCCCC[C@H](NC(=O)N[C@@H](CCC(=O)O)C(=O)O)C(=O)O [Compound 51]
[1]
  IC50: 1.71 µM
  Ki: 12.2 nM

## CC(=O)NCCOCCOCCOCCC(=O)N[C@@H](CCCOc1cc(C#N)cc(C#N)c1)C(=O)NCCC(=O)N[C@@H](Cc1ccc2ccccc2c1)C(=O)NCCCC[C@H](NC(=O)N[C@@H](CCC(=O)O)C(=O)O)C(=O)O [Compound 53]
[1]
  IC50: 0.0112 µM
  Ki: 0.0801 nM

## CC(=O)NCCOCCOCCOCCC(=O)N(CCCOc1cc(C#N)cc(C#N)c1)CC(=O)N[C@@H](Cc1ccc2ccccc2c1)C(=O)NCCCC[C@H](NC(=O)N[C@@H](CCC(=O)O)C(=O)O)C(=O)O [Compound 78]
Human FOLH1
  Kon: 487000 1.ms
  koff: 0.000208 s⁻¹

## CC(=O)NCCOCCOCCOCCC(=O)N1C[C@H](NC(=O)CCCOc2cc(C#N)cc(C#N)c2)C[C@H]1C(=O)N[C@@H](Cc1ccc2ccccc2c1)C(=O)NCCCC[C@H](NC(=O)N[C@@H](CCC(=O)O)C(=O)O)C(=O)O [Compound 80]
Human FOLH1
  Kon: 243000 1.ms
  koff: 0.000599 s⁻¹

## CC(=O)NCCOCCOCCOCCC(=O)N[C@@H](Cc1ccncc1)C(=O)NCC(=O)N[C@@H](Cc1ccc2ccccc2c1)C(=O)NCCCC[C@H](NC(=O)N[C@@H](CCC(=O)O)C(=O)O)C(=O)O [Compound 85]
[1]
  IC50: 0.0106 µM
  Ki: 0.0759 nM
